Measured values: ChEMBL document CHEMBL4622897, “Synthesis and biological evaluation of backbone-aminated analogues of gramicidin S” (Bioorg Med Chem Lett, 2020)
Numbered stars: 1 amine (or outer) side, 2 acyl side, 3 side chain; on linkers, the order of the positions; unused ones are H or OH. Square brackets hold non-standard residues; d marks the D form. Peptide text beside a SMILES is read from it. X1 = NN([C@H](Cc1ccccc1)C(=O)[*:2])[*:1]; Orn(Nα-NH2) = NCCC[C@H](NN)C(=O)O; Orn = NCCC[C@H](N)C(=O)O

Tests used:
Pseudomonas aeruginosa = assay: Antibacterial activity against Pseudomonas aeruginosa 1419 assessed as growth inhibition by microbroth dilution assay; type: functional
Klebsiella pneumoniae = assay: Antibacterial activity against Klebsiella pneumoniae 1433 assessed as growth inhibition by microbroth dilution assay; type: functional
Acinetobacter baumannii = assay: Antibacterial activity against Acinetobacter baumannii 5075 assessed as growth inhibition by microbroth dilution assay; type: functional; conditions: AB5075
Enterobacter cloacae = assay: Antibacterial activity against Enterobacter cloacae 1454 assessed as growth inhibition by microbroth dilution assay; type: functional
Enterococcus faecium = assay: Antibacterial activity against Enterococcus faecium 1450 assessed as growth inhibition by microbroth dilution assay; type: functional
Staphylococcus aureus = assay: Antibacterial activity against Staphylococcus aureus 635 assessed as growth inhibition by microbroth dilution assay; type: functional
Erythrocyte = assay: Hemolytic activity in human RBC assessed as hemolysis at 50 uM; type: ADME, cell-based
[1] = Hemolytic activity in human RBC assessed as hemolysis at 50 uM relative to control; type: ADME, cell-based, Erythrocyte; conditions: red blood cells (erythrocytes), read-out: Activity

Work on `CC(C)C[C@@H]1NC(=O)[C@H](CCCN)NC(=O)[C@H](C(C)C)NC(=O)[C@@H]2CCCN2C(=O)[C@@H](Cc2ccccc2)NC(=O)[C@H](CC(C)C)NC(=O)[C@H](CCCN)N(N)C(=O)[C@H](C(C)C)NC(=O)[C@@H]2CCCN2C(=O)[C@@H](Cc2ccccc2)NC1=O` (cyclo(L[dF]PV[Orn]L[dF]PV[Orn(Nα-NH2)])) yielded an MIC (Pseudomonas aeruginosa) of 13 µM, an MIC (Klebsiella pneumoniae) of 40 µM and an MIC (Acinetobacter baumannii) of 6.5 µM. The MIC (Enterobacter cloacae) was 30 µM, the MIC (Enterococcus faecium) was 3 µM and the MIC (Staphylococcus aureus) was 2 µM.
For `CC(C)C[C@@H]1NC(=O)[C@H](CCCN)NC(=O)[C@H](C(C)C)NC(=O)[C@@H]2CCCN2C(=O)[C@@H](Cc2ccccc2)N(N)C(=O)[C@H](CC(C)C)NC(=O)[C@H](CCCN)N(N)C(=O)[C@H](C(C)C)NC(=O)[C@@H]2CCCN2C(=O)[C@@H](Cc2ccccc2)N(N)C1=O` (cyclo(L[X1]PV[Orn]L[X1]PV[Orn(Nα-NH2)])), the MIC (Pseudomonas aeruginosa) was 20 µM, the MIC (Klebsiella pneumoniae) was 50 µM and the MIC (Acinetobacter baumannii) was 6.5 µM. It also gave an MIC (Enterobacter cloacae) of 35 µM, an MIC (Enterococcus faecium) of 3 µM and an MIC (Staphylococcus aureus) of 3 µM.
In the case of `CC(C)C[C@@H]1NC(=O)[C@H](CCCN)NC(=O)[C@H](C(C)C)NC(=O)[C@@H]2CCCN2C(=O)[C@@H](Cc2ccccc2)N(N)C(=O)[C@H](CC(C)C)NC(=O)[C@H](CCCN)NC(=O)[C@H](C(C)C)NC(=O)[C@@H]2CCCN2C(=O)[C@@H](Cc2ccccc2)N(N)C1=O` (cyclo(L[X1]PV[Orn]L[X1]PV[Orn])), the MIC (Pseudomonas aeruginosa) is reported as 35 µM, the Activity (Erythrocyte) is reported as “Toxic” and the MIC (Klebsiella pneumoniae) is reported as over 50 µM. For the same molecule, the MIC (Acinetobacter baumannii) was 12.5 µM, the MIC (Enterobacter cloacae) was over 50 µM and the MIC (Enterococcus faecium) was 4 µM. It also gave an MIC (Staphylococcus aureus) of 4 µM.
Work on `CC(C)C[C@@H]1NC(=O)[C@H](CCCN)NC(=O)[C@H](C(C)C)NC(=O)[C@@H]2CCCN2C(=O)[C@@H](Cc2ccccc2)N(N)C(=O)[C@H](CC(C)C)NC(=O)[C@H](CCCN)NC(=O)[C@H](C(C)C)NC(=O)[C@@H]2CCCN2C(=O)[C@@H](Cc2ccccc2)NC1=O` (cyclo(L[dF]PV[Orn]L[X1]PV[Orn])) yielded an MIC (Pseudomonas aeruginosa) of 20 µM, an MIC (Klebsiella pneumoniae) of 45 µM and an MIC (Acinetobacter baumannii) of 6 µM. It also gave an MIC (Enterobacter cloacae) of 40 µM, an MIC (Enterococcus faecium) of 5 µM and an MIC (Staphylococcus aureus) of 4 µM.
`CC(C)C[C@@H]1NC(=O)[C@H](CCCN)N(N)C(=O)[C@H](C(C)C)NC(=O)[C@@H]2CCCN2C(=O)[C@@H](Cc2ccccc2)N(N)C(=O)[C@H](CC(C)C)NC(=O)[C@H](CCCN)N(N)C(=O)[C@H](C(C)C)NC(=O)[C@@H]2CCCN2C(=O)[C@@H](Cc2ccccc2)NC1=O` (cyclo(L[dF]PV[Orn(Nα-NH2)]L[X1]PV[Orn(Nα-NH2)])) gave an MIC (Pseudomonas aeruginosa) of 12 µM, an MIC (Klebsiella pneumoniae) of over 50 µM and an MIC (Acinetobacter baumannii) of 6 µM. It also gave an MIC (Enterobacter cloacae) of over 50 µM, an MIC (Enterococcus faecium) of 2 µM and an MIC (Staphylococcus aureus) of 2 µM.
Molecule `CC(C)C[C@@H]1NC(=O)[C@H](CCCN)N(N)C(=O)[C@H](C(C)C)NC(=O)[C@@H]2CCCN2C(=O)[C@@H](Cc2ccccc2)NC(=O)[C@H](CC(C)C)NC(=O)[C@H](CCCN)N(N)C(=O)[C@H](C(C)C)NC(=O)[C@@H]2CCCN2C(=O)[C@@H](Cc2ccccc2)NC1=O` (cyclo(L[dF]PV[Orn(Nα-NH2)]L[dF]PV[Orn(Nα-NH2)])) has a hemolysis at 50 µM [1] of 16%, an MIC (Pseudomonas aeruginosa) of 10 µM and an MIC (Klebsiella pneumoniae) of 45 µM. The MIC (Acinetobacter baumannii) was 4 µM, the MIC (Enterobacter cloacae) was 20 µM and the MIC (Enterococcus faecium) was 2 µM. For the same molecule, the MIC (Staphylococcus aureus) was 2 µM.
Molecule `CC(C)C[C@@H]1NC(=O)[C@H](CCCN)NC(=O)[C@H](C(C)C)NC(=O)[C@@H]2CCCN2C(=O)[C@@H](Cc2ccccc2)NC(=O)[C@H](CC(C)C)NC(=O)[C@H](CCCN)NC(=O)[C@H](C(C)C)NC(=O)[C@@H]2CCCN2C(=O)[C@@H](Cc2ccccc2)NC1=O` (cyclo(V[Orn]L[dF]PV[Orn]L[dF]P)) has an MIC (Pseudomonas aeruginosa) of 20 µM, an MIC (Klebsiella pneumoniae) of 40 µM and an MIC (Acinetobacter baumannii) of 6.5 µM. The MIC (Enterobacter cloacae) was 35 µM, the MIC (Enterococcus faecium) was 3 µM and the MIC (Staphylococcus aureus) was 3 µM.
`CC(C)C[C@@H]1NC(=O)[C@H](CCCN)NC(=O)[C@H](C(C)C)NC(=O)[C@@H]2CCCN2C(=O)[C@@H](Cc2ccccc2)NC(=O)[C@H](CC(C)C)NC(=O)[C@H](CCCN)NC(=O)[C@H](C(C)C)NC(=O)[C@@H]2CCCN2C(=O)[C@@H](Cc2ccccc2)NC1=O` (cyclo(L[dF]PV[Orn]L[dF]PV[Orn])) showed a hemolysis at 50 µM [1] of 22%.
In the case of `CC(C)C[C@@H]1NC(=O)[C@H](CCCN)N(N)C(=O)[C@H](C(C)C)NC(=O)[C@@H]2CCCN2C(=O)[C@@H](Cc2ccccc2)N(N)C(=O)[C@H](CC(C)C)NC(=O)[C@H](CCCN)NC(=O)[C@H](C(C)C)NC(=O)[C@@H]2CCCN2C(=O)[C@@H](Cc2ccccc2)NC1=O` (cyclo(L[dF]PV[Orn]L[X1]PV[Orn(Nα-NH2)])), the MIC (Pseudomonas aeruginosa) is reported as 15 µM, the MIC (Klebsiella pneumoniae) is reported as 45 µM and the MIC (Acinetobacter baumannii) is reported as 6.5 µM. It also gave an MIC (Enterobacter cloacae) of 30 µM, an MIC (Enterococcus faecium) of 3 µM and an MIC (Staphylococcus aureus) of 2 µM.
`CC(C)C[C@@H]1NC(=O)[C@H](CCCN)NC(=O)[C@H](C(C)C)NC(=O)[C@@H]2CCCN2C(=O)[C@@H](Cc2ccccc2)N(N)C(=O)[C@H](CC(C)C)NC(=O)[C@H](CCCN)N(N)C(=O)[C@H](C(C)C)NC(=O)[C@@H]2CCCN2C(=O)[C@@H](Cc2ccccc2)NC1=O` (cyclo(L[dF]PV[Orn(Nα-NH2)]L[X1]PV[Orn])) gave an MIC (Pseudomonas aeruginosa) of 15 µM, an MIC (Klebsiella pneumoniae) of 45 µM and an MIC (Acinetobacter baumannii) of 6.5 µM. For the same molecule, the MIC (Enterobacter cloacae) was 15 µM, the MIC (Enterococcus faecium) was 3 µM and the MIC (Staphylococcus aureus) was 2 µM.
With `CC(C)C[C@@H]1NC(=O)[C@H](CCCN)N(N)C(=O)[C@H](C(C)C)NC(=O)[C@@H]2CCCN2C(=O)[C@@H](Cc2ccccc2)N(N)C(=O)[C@H](CC(C)C)NC(=O)[C@H](CCCN)N(N)C(=O)[C@H](C(C)C)NC(=O)[C@@H]2CCCN2C(=O)[C@@H](Cc2ccccc2)N(N)C1=O` (cyclo(L[X1]PV[Orn(Nα-NH2)]L[X1]PV[Orn(Nα-NH2)])) the MIC (Pseudomonas aeruginosa) was 15 µM, the Activity (Erythrocyte) was “Toxic” and the MIC (Klebsiella pneumoniae) was over 50 µM. For the same molecule, the MIC (Acinetobacter baumannii) was 5 µM, the MIC (Enterobacter cloacae) was over 50 µM and the MIC (Enterococcus faecium) was 2 µM. For the same molecule, the MIC (Staphylococcus aureus) was 2 µM.
